Assays:
Assay type in all cases: toxicity, cell-based
[1] = tested on: Fibroblast; experiment: Incucyte cell viability with human fibroblast; conditions: 10 µM, compound concentration 10 uM
[2] = tested on: U2OS; experiment: Incucyte cell viability with U2OS; conditions: human, 10 µM, compound concentration 10 uM
[3] = tested on: HEK-293T; experiment: Incucyte cell viability with HEK293T; conditions: human, 10 µM, compound concentration 10 uM
Also: unitless GR value; below 1 slowed growth and below 0 cell loss.

| Compound | Growth Rate ([1]; 0 h, replicate number 1) | Growth Rate ([1]; 0 h, replicate number 2) | Growth Rate ([1]; 6 h, replicate number 1) | Growth Rate ([1]; 6 h, replicate number 2) | Growth Rate ([1]; 12 h, replicate number 1) | Growth Rate ([1]; 12 h, replicate number 2) | Growth Rate ([1]; 18 h, replicate number 2) | Growth Rate ([1]; 24 h, replicate number 2) | Growth Rate ([2]; 0 h, replicate number 2) | Growth Rate ([3]; 0 h, replicate number 1) | Growth Rate ([3]; 6 h, replicate number 2) | Growth Rate ([3]; 24 h, replicate number 2) | Growth Rate ([2]; 18 h, replicate number 2) | Growth Rate ([1]; 18 h, replicate number 1) | Growth Rate ([2]; 0 h, replicate number 1) | Growth Rate ([3]; 6 h, replicate number 1) | Growth Rate ([3]; 12 h, replicate number 1) | Growth Rate ([3]; 12 h, replicate number 2) | Growth Rate ([3]; 18 h, replicate number 1) | Growth Rate ([3]; 18 h, replicate number 2) | also measured |
| --- | --- | --- | --- | --- | --- | --- | --- | --- | --- | --- | --- | --- | --- | --- | --- | --- | --- | --- | --- | --- | --- |
| CN1C2CCCC1CC(Nc1ccccc1Br)C2 (centres undefined) | 0.86 | 0.67 | -0.98 | -0.45 | 0.42 | 0.88 | 0.95 | 0.92 | -0.9 | 0.87 | 0.99 | 0.99 |  |  |  |  |  |  |  |  |  |
| COc1ccc(C(=O)N[C@H](C)c2cccc(C(=O)Nc3nc4c(s3)CN(C)CC4)c2)cc1C.O=C(O)C(F)(F)F | 0.21 | -0.72 |  |  |  |  |  |  |  | -0.36 |  |  | 0.97 |  |  |  |  |  |  |  | Growth Rate ([2]; 24 h, replicate number 2): 0.88 |
| C=CC(=O)Nc1ccc(C(=O)Nc2n[nH]c3c2CN(C(=O)N[C@H](CN(C)C)c2ccccc2)C3(C)C)cc1 |  | -0.72 |  | 0.71 | 0.56 | 0.45 | 0.06 | -0.02 |  | -0.5 | -0.51 | -0.16 | 0.97 | 0.18 | -1 | 0.11 | 0.02 | -0.3 | 0.02 | -0.27 | Growth Rate ([1]; 24 h, replicate number 1): 0.19; Growth Rate ([2]; 6 h, replicate number 2): 1; Growth Rate ([2]; 12 h, replicate number 2): -0.41; Growth Rate ([2]; 18 h, replicate number 1): 0.84; Growth Rate ([2]; 24 h, replicate number 1): 0.76; Growth Rate ([3]; 24 h, replicate number 1): 0.03 |
| COc1ccc([C@@H]2Sc3ccccc3N(CCN(C)C)C(=O)[C@@H]2OC(C)=O)cc1.Cl [DILTIAZEM HYDROCHLORIDE] | 0.54 | -0.94 |  |  | -0.67 |  | 0.94 | 0.87 | -0.41 | 0.6 | 0.11 | 0.86 | 0.94 | 0.89 |  |  |  | 0.55 |  | 0.86 | Growth Rate ([1]; 24 h, replicate number 1): 0.57 |
| CN1CCN(c2nc(C3=C(c4c[nH]c5ccccc45)C(=O)NC3=O)c3ccccc3n2)CC1 [SOTRASTAURIN] |  | -0.97 | -0.88 |  | -1 |  |  |  | -0.29 | -0.3 |  |  |  |  | -0.78 |  |  |  |  |  | Growth Rate ([3]; 0 h, replicate number 2): -0.61 |
| COc1ccc(CCN(C)CCCC(C#N)(c2cc(OC)c(OC)c(OC)c2)C(C)C)cc1OC.Cl (centres undefined) [GALLOPAMIL HYDROCHLORIDE] | -0.26 |  | -0.5 | 0.16 | 0.03 | 0.12 | 0.41 | 0.73 | -0.88 |  |  | 0.94 |  |  |  | 0.31 | 0.9 | 0.97 |  | 0.94 | Growth Rate ([2]; 24 h, replicate number 2): 1 |
| CC[C@](C)(O)C#Cc1cc2c(ccn2-c2cc(OC)nc(N)n2)cn1 | -0.3 |  | -0.12 |  | -1 |  |  | 0.83 | -0.28 |  | 0.55 |  |  | 0.63 |  | -0.14 | 0.4 |  | 0.76 |  | Growth Rate ([3]; 0 h, replicate number 2): 0.37; Growth Rate ([3]; 24 h, replicate number 1): 0.84 |
| CC(C)n1cc(-c2ccc(N3CCN(C)CC3)c(NC(=O)c3ccc(-c4ccncc4)o3)c2)cn1 |  | -0.35 | -0.97 | 0.11 |  | 0.45 | 0.67 | 0.65 | -0.8 |  | -0.31 | 0.31 |  |  | -0.65 | -0.65 | -0.36 | -0.01 | -0.19 | 0.15 | Growth Rate ([2]; 12 h, replicate number 1): 0.96; Growth Rate ([3]; 24 h, replicate number 1): -0.08 |

From ChEMBL document CHEMBL5303304, “EUbOPEN Chemogenomics Library - IncuCyte” (2023)
